# Assay results published in patent publication US4165379A, “N-acetyl thienamycin” (Merck & Co., Inc., priority 1977, dated 1979).
# Like-named read-outs stand apart in the source and are kept apart here.
# Key:
# [1] = tested on: gram-negative and gram-positive organisms; assay: In vivo activity against infections in mice; details: mouse
# Protocol: (§1) In determining the in vivo activity, N-acetyl thienamycin is dissolved in and diluted with 0.01 M sodium phosphate, pH 7.0, to provide five fourfold concentrations of drug for testing. Female white Swiss mice, averaging about 21 g. in weight, were infected intraperitoneally with the test organism suspended in broth. The numbers of organisms injected were determined by standard plate-count techniques. At the time of infection, and again 6 hours later, certain of the mice were treated intraperitoneally with the antibiotic. Five mice were used for each concentration of drug tested. Controls of five mice for each of several dilutions of the infecting culture were included in each test in order to calculate the numbers of organisms that were lethal to 50% of the infected, untreated mice (LD50). This calculation was made using survival data of the seventh day after infection, at which time the amount of drug that should protect 50% of the infected mice (ED50) also was calculated.
# [2] = tested on: Vibrio percolans ATCC 8461; assay: Disc-diffusion bioassay on ATCC 8461 plates; format: cell-based; details: crude sample (244 absorbance units at 298 nm); 1/2 inch disc, 0.1 ml of 1000 fold dilution; 25° C.
# Protocol: Assays of antibacterial activity are run according to the following disc-diffusion method using either Vibrio percolans ATCC 8461 or Staphylococcus aureus ATCC […] as tester organism. Plates containing Vibrio percolans ATCC 8461 are prepared as follows: A lyophilized culture of Vibrio percolans ATCC 8461 is suspended in 15 ml. of a sterilized medium containing 8 g./l. of Difco Nutrient Broth and 2 g./l. of yeast extract in distilled water (hereinafter designated NBYE). The culture is incubated overnight on a rotary shaker at 28° C. This culture is used to inoculate the surface of […] containing 1.5% agar in NBYE, and the inoculated […] incubated overnight at 28° C. and then stored in a refrigerator. The refrigerated […] prepared from a single lyophilized culture are used for up to four weeks from their preparation, as follows: A loop of inoculum from the slant is dispersed in 50 ml. of NBYE contained in a 250 ml. Erlenmeyer flask. […] The plates are incubated at 37° C. overnight, and the zone of inhibition is measured as mm. diameter. The zone of inhibition measured in mm. determines relative potencies. […] The solution contains 244 absorbance units at 298 nm and a 1/2 inch assay disc containing 0.1 ml. of a 1000 fold dilution, produces a 23 mm. zone of inhibition when incubated on ATCC 8461 plates at 25° C.
# [3] = tested on: Staph aureus 2949; assay: Efficacy studies (mice), intraperitoneal infection (Table 4); format: in vivo, CD-1 female mice infected with Staph aureus; details: Staphylococcus aureus, 2949, ip, 168 h; i.p. × 2, at time of infection and again 6 hours later; challenge 13 LD50; survival seventh day after infection
# Protocol: as §1
# [4] = tested on: Proteus mirabilis; assay: Bauer-Kirby disc diffusion antibiotic spectrum (Table 3); format: cell-based; details: MB2830, resistance P,C (penicillins, cephalosporins), read-out: diameter of the zone of inhibition
# Description: (§2) The test employs the Bauer-Kirby disc diffusion method modified only in respect to the 2 mm. agar depth employed here.
# [5] = tested on: Serratia; assay: as above; format: cell-based; details: MB2840, resistance P,C (penicillins, cephalosporins), read-out: diameter of the zone of inhibition
# Description: as §2
# [6] = tested on: Klebsiella pneumoniae; assay: as above; format: cell-based; details: read-out: diameter of the zone of inhibition; for zone of inhibition at 10.35 µg/disc: Klebsiella pneumoniae, 10.35 μg/disc, prepared by acetylating thienamycin; for zone of inhibition at 9.85 µg/disc: 9.85 μg/disc, prepared by fermenting Streptomyces cattleya
# Description: as §2
# [7] = tested on: Staphylococcus aureus; assay: as above; format: cell-based; details: for diameter of the zone of inhibition: MB2314, resistance P (penicillins)
# Description: as §2
# [8] = tested on: Enterobacter cloacae; assay: as above; format: cell-based; details: read-out: diameter of the zone of inhibition; for zone of inhibition at 10.35 µg/disc: Enterobacter cloacae, 10.35 μg/disc, prepared by acetylating thienamycin; for zone of inhibition at 9.85 µg/disc: 9.85 μg/disc, prepared by fermenting Streptomyces cattleya
# Description: as §2
# [9] = tested on: Escherichia coli; assay: as above; format: cell-based; details: read-out: diameter of the zone of inhibition; for zone of inhibition at 10.35 µg/disc: Escherichia coli, 10.35 μg/disc, prepared by acetylating thienamycin; for zone of inhibition at 9.85 µg/disc: 9.85 μg/disc, prepared by fermenting Streptomyces cattleya
# Description: as §2
# [10] = tested on: Pseudomonas aeruginosa; assay: as above; format: cell-based; details: read-out: diameter of the zone of inhibition; for zone of inhibition at 9.85 µg/disc: 9.85 μg/disc, prepared by fermenting Streptomyces cattleya; for zone of inhibition at 10.35 µg/disc: Pseudomonas aeruginosa, 10.35 μg/disc, prepared by acetylating thienamycin
# Description: as §2
# [11] = tested on: Bacillus subtilis; assay: as above; format: cell-based; details: MB 964, ATCC 6633, read-out: diameter of the zone of inhibition
# Description: as §2
# [12] = tested on: Proteus morganii; assay: as above; format: cell-based; details: MB2833, resistance P,C (penicillins, cephalosporins), read-out: diameter of the zone of inhibition
# Description: as §2
# [13] = pKa from the λ max dependence on pH; format: physicochemical; details: read-out: pKa for a COOH group
# [14] = tested on: Staphylococcus aureus ATCC 6538P; assay: Disc-diffusion potency in units/mg relative to cephalothin; format: cell-based
# Protocol: Plates containing Staphylococcus aureus ATCC 6538P are prepared as follows:
# An overnight growth of the assay organism, Staphylococcus aureus ATCC 6538P, in nutrient broth plus 0.2% yeast extract is diluted with nutrient broth plus 0.2% yeast extract to a suspension having 55% transmittance at a wavelength of 660 nm. This suspension is added to Difco nutrient agar supplemented with 2.0 g./l. Difco yeast extract at 47° C. to 48° C., to make a composition containing 33.2 ml. of the suspension per liter of agar. Five ml. of this suspension is poured into petri dishes of 85 mm. diameter, and these plates are chilled and held at 4° C. until used (5 day maximum).
# Samples of antibiotic to be assayed are diluted to an appropriate concentration in phosphate buffer at pH 7. Filter paper discs, 1/4 or 1/2 inch diameter, are dipped into the test solution and placed on the surface of the assay plate. The plates are incubated at 37° C. overnight, and the zone of inhibition is measured as mm. diameter. The zone of inhibition measured in mm. determines relative potencies.
# The 48 l. concentrate is adjusted to pH 7.3 and adsorbed on 76 l. of Dowex 1×2, 50 to 100 mesh, chloride cycle resin at 7.6 l./min. The resin is eluted with deionized water at the same rate. Four fractions are collected, two of 48 l., one of 70 l. and one of 48 l. The fractions are adjusted to pH 7 as collected. Assays indicate that 68% of the starting bioactivity is in the 70 l. fraction. This fraction is concentrated to 18 l. at pH 7.0 and filtered using a 0.45 micron Millipore Filter.
# [15] = 9.85 μg/disc, prepared by fermenting Streptomyces cattleya
# [16] = MB2921, resistance P (penicillins)
# [17] = MB2922, resistance P (penicillins)
# [18] = MB2646, resistance P,C (penicillins, cephalosporins)
# [19] = MB2482, resistance P (penicillins)
# [20] = MB2964, resistance P,C (penicillins, cephalosporins)
# [21] = MB2824, resistance P,C (penicillins, cephalosporins)
# [22] = MB2835, resistance P,C (penicillins, cephalosporins), zone hazy
# [23] = MB3286, resistance P,C (penicillins, cephalosporins)
smiles,measurement,setting,value
"CC(=O)NCCSC1=C(C(=O)O)N2C(=O)C(C(C)O)C2C1 (centres unmarked) [N-Acetyl Thienamycin, N-acetyl thienamycin]",in vivo activity,[1],exhibits in vivo activity against gram-negative and gram-positive organisms
same,zone of inhibition,[2],23 mm
same,ED50,[3],0.05 mg/kg
same,zone of inhibition at 9.85 µg/disc,[4]; [15],25 mm
same,zone of inhibition at 10.35 µg/disc,"[4]; Proteus mirabilis, 10.35 μg/disc, prepared by acetylating thienamycin",26 mm
same,zone of inhibition at 9.85 µg/disc,[5]; [15],27 mm
same,zone of inhibition at 10.35 µg/disc,"[5]; Serratia, 10.35 μg/disc, prepared by acetylating thienamycin",27 mm
same,zone of inhibition at 10.35 µg/disc,[6]; [16],28.5 mm
same,zone of inhibition at 10.35 µg/disc,[6]; [17],30 mm
same,zone of inhibition at 9.85 µg/disc,[6]; [16],28 mm
same,zone of inhibition at 9.85 µg/disc,[6]; [17],27 mm
same,diameter of the zone of inhibition,[7]; [15],37 millimeters
same,diameter of the zone of inhibition,"[7]; 10.35 μg/disc, prepared by acetylating thienamycin",37 millimeters
same,zone of inhibition at 9.85 µg/disc,"[7]; MB2985, 9.85 μg/disc, prepared by fermenting Streptomyces cattleya, read-out: diameter of the zone of inhibition",37 mm
same,zone of inhibition at 10.35 µg/disc,"[7]; Staphylococcus aureus, MB2985, 10.35 μg/disc, prepared by acetylating thienamycin, read-out: diameter of the zone of inhibition",37 mm
same,zone of inhibition at 10.35 µg/disc,[8]; [18],27 mm
same,zone of inhibition at 10.35 µg/disc,[8]; MB2647,29 mm
same,zone of inhibition at 9.85 µg/disc,[8]; [18],26.5 mm
same,zone of inhibition at 9.85 µg/disc,[8]; MB2647,29 mm
same,zone of inhibition at 10.35 µg/disc,[9]; [19],28 mm
same,zone of inhibition at 10.35 µg/disc,[9]; MB2884,31.5 mm
same,zone of inhibition at 10.35 µg/disc,[9]; [20],29.5 mm
same,zone of inhibition at 9.85 µg/disc,[9]; [19],28 mm
same,zone of inhibition at 9.85 µg/disc,[9]; MB2884,31.5 mm
same,zone of inhibition at 9.85 µg/disc,[9]; [20],28.5 mm
same,zone of inhibition at 9.85 µg/disc,[10]; [21],23 mm
same,zone of inhibition at 9.85 µg/disc,[10]; [22],11 mm
same,zone of inhibition at 9.85 µg/disc,[10]; [23],0 mm
same,zone of inhibition at 10.35 µg/disc,[10]; [21],24 mm
same,zone of inhibition at 10.35 µg/disc,[10]; [22],11 mm
same,zone of inhibition at 10.35 µg/disc,[10]; [23],0 mm
same,zone of inhibition at 10.35 µg/disc,"[11]; Bacillus subtilis, ATCC6633, 10.35 μg/disc, prepared by acetylating thienamycin",44.5 mm
same,zone of inhibition at 9.85 µg/disc,[11]; [15],43 mm
same,zone of inhibition at 9.85 µg/disc,[12]; [15],25.5 mm
same,zone of inhibition at 10.35 µg/disc,"[12]; Morganella morganii, 10.35 μg/disc, prepared by acetylating thienamycin",25 mm
same,pKa,[13],3.3 ± 0.1
C[C@@H](O)[C@H]1C(=O)N2C(C(=O)O)=C(SCCN)C[C@H]12 [thienamycin],calculated potency,[14]; 23.6 mg. after second XAD-2 column,"30,140 units/mg"
same,average potency,"[14]; 90 mg. after Bio-Gel P-2, fractions 75 through 80","10,000 units/mg"
same,potency,"[14]; 100.5 mg. after Bio-Gel P-2, fractions 75 through 79","8,320 units/mg"
same,calculated potency,"[14]; after second XAD-2 column, 3.1 fold purification","31,000 units/mg"
same,potency,[14]; freeze-dried product after Dowex 1×2,310 units/mg
